The results in this text go back to patent EP0350948B1, “Porphyrin derivatives” (TOYOHAKKA KOGYO KABUSHIKI KAISHA, priority 1988, dated 1990).

Data set [1] concerns nitrosoamine-induced pancreatic cancer. The experiment in a line: in vivo irradiation therapy using Yag laser. Also noted: species or system hamsters. As to conditions: i.v. 12.5 mg/kg bodyweight, Yag laser 1064 nm, 5 w, 10 sec x 4 at 24 hours after administration, autopsy 24 hours following irradiation. On the procedure:
Tumor bearing hamsters of Experiment 1 were i.v. administered the test materials C6-Ga-DP-diAsp (10) and C10 -Ga-DP-diAsp (16) (10 mg/ml) at 12.5 mg/kg bodyweight. At 24 hours after administration, the hair above the tumor site was shaved and irradiation with Yag laser commenced (1064 nm, 5 w, 10 sec x 4). At 24 hours following irradiation, the animals were exsanguinated and autopsied for observation.

For data set [2] the test system is unchanged. Nature of the data set: laser irradiation to the extirpated organ (excited fluorescent spectrum, N2-PLS measurement), tumor to tissue ratio. As to conditions: i.v. 25 mg/kg bodyweight, organs extirpated at 24 hours after administration. It is filed as in vivo, Golden hamsters. On the procedure: Golden hamsters (males, 5 per group, bodyweight approximately 150 g) were implanted subcutaneously tumor cells of the nitrosoamine-induced pancreatic cancer. After 14 to 21 days following implantation, animals were intravenously (i.v.) administered the test substance EG-Ga-DP-diGly (10 mg/ml) which had been diluted with phosphate buffer at 25 mg/kg bodyweight. At 24 hours after administration, the organs including the tumor were extirpated, irradiated with N2-pulsed laser (N2, 337 nm, 2 ns, 400 - 1000 nm), and measured of excited fluorescent spectrum. The wavelengths of 600 - 900 nm were studied using the peak wavelength of NADH at 470 nm as a reference. (N2-PLS measurement). […] (Tumor to tissue ratio).
Excited fluorescent spectra of the organs extirpated at 24 hours after administration were measured, and the peak wavelength at 600 - 900 nm was calculated by setting the peak wavelength at 470 nm as the reference 1. As fluorescence in Mn, Fe and Cu complexes is not sufficiently intense as to enable N2-PLS measurement, the extraction method was applied to these compounds. At 24 hours following administration, the organs were extracted with an organic solvent (such as chloroform-methanol) via acetone powder, and the obtained extract was measured of UV or HPLC to calculate the tumor to tissue ratio.

Data set [3] shares this test system. The experiment in a line: in vivo hemorrhagic necrosis effect. Also noted: species or system hamsters; key to Hemorrhagic necrosis effect: four scales of G4, G3, G2 and G1; four scales of G4, G3, G2 and G1; four scales of G4, G3, G2 and G1; four scales of G4, G3, G2 and G1. As to conditions: for photograph of a cancer mass (Fig. 2): 24 hours after administration, Cn-Ga-DP-diAsp, n = even numbers; for Hemorrhagic necrosis effect: intensity of hemorrhagic necrosis at 24 hours following i.v. administration, and pathological study. On the procedure: Cancer bearing hamsters of Experiment 1 were i.v. administered the test substance C6-Ga-DP-diAsp (10) (10 mg/ml) which had been diluted with phosphate buffer at 25 mg/kg bodyweight and 12.5 mg/kg bodyweight respectively. The animals were exsanguinated and autopsied at 24 hours after administration, and observed.
The evaluation was based on the four scales of G4, G3, G2 and G1.

For data set [4], the system named is Leukemia cells of a mouse (P388). Nature of the data set: in vitro photosensitivity test (cell growth inhibition ratio). Format: cell-based. As to conditions: irradiated at 10,000 lux for 1 hour, incubated for 48 hours, versus group shielded from light. The method, then: Leukemia cells of a mouse (P388) were placed in wells (a plate with 24 wells) at 5 x 10^4/well, and incubated for 2 hours. The test materials C8-Ga-DP-diAsp (12), C10-Mn-DP-diAsp (37) and photofrin II each at concentrations of 1.56, 3.13, 6.25, 12.5, 25, and 50 ng/ml (common ratio : 2) were prepared. The specified amounts of these test solutions were added to the above culture, irradiated at 10,000 lux for 1 hour, incubated for 48 hours, and the cells per one well were counted. A group shielded from light using an aluminium foil during irradiation was provided as control. The index of photosensitivity was obtained by dividing the cell counts of the respective groups with the cell count of an untreated group provided separately (cell growth inhibition ratio (%)).
However, this was attributed to the toxicity of the test material per se rather than to irradiation.

For data set [5], the system named is nitrosoamine-induced pancreatic cancer. The experiment in a line: in vivo cell growth inhibition effect (tumor size by slide calipers). Also noted: species or system hamsters. Particulars: i.v. 25 mg/kg bodyweight. On the procedure: Tumor bearing hamsters of Experiment 1 were i.v. administered the test substance C10-Mn-DP-diAsp (37) (10 mg/ml) diluted by phosphate buffer at 25 mg/kg bodyweight. The tumor size was measured supracutaneously using slide calipers on an appropriate day following administration.

Data set [6] has the same test system. Nature of the data set: pathology of tumor and organs (hematoxylin-eosin sections). As to conditions: treated as in Experiment 2, formalin fixed. Format: in vivo, hamsters. The method, then:
Tumor bearing hamsters of Experiment 1 were treated similarly as in Experiment 2 except that they were administered C12-Mn-DP-diAsp (48) instead of C6-Ga-DP-diAsp (10). Organs including the tumor (the treated group and the control group) were fixed with formalin, embedded in paraffin, cut into sections, double stained with hematoxylin-eosin, and observed pathologically.
Figs. 4 and 5 show photographs of the tumor cell necrosis of the treated group. There were many cell necrosis images and necrotic layers which were not present in the non-cancerous organs and the control group.

Setting [7] is: i.v. 25 mg/kg and 12.5 mg/kg bodyweight, autopsy at 24 hours after administration.

Bounds are passed on as bounds.

Regarding `CCCCCCOC(C)C1=C(C)C2=Cc3c(C(C)OCCCCCC)c(C)c4[n]3[Ga][n]3c(c(C)c(CCC(=O)NC(CC(=O)O)C(=O)O)c3=CC3=NC(=C4)C(C)=C3CCC(=O)NC(CC(=O)O)C(=O)O)=CC1=N2` (centres unmarked) [(10) C6-Ga-DP-diAsp, 2,4-bis(1-hexyloxyethyl)-Ga-deuteroporphynyl diaspartic acid], the “state of the cancer mass after Yag laser irradiation” value in data set [1] was “necrotic”. For the same compound, in data set [2], the tumor/tissue cancer/ kidney came out at 6.86, the tumor/tissue cancer/ liver came out at 5.33, the tumor/tissue cancer/ lung was 5.33 and the tumor/tissue cancer/ serum is recorded as 0.98. For the same compound, in data set [3], the “photograph of a cancer mass (Fig. 2)” value is “hemorrhagic necrosis” and the Hemorrhagic necrosis effect result was “G4”. Further, in data set [3] (setting [7]), the “changes of the organs such as the liver, lungs, kidneys excluding the tumor” value is “showed no changes” and the “effect on the cancer mass” value is on record as “developed hemorrhagic necrosis”.
Consider `CCCCCCCCOC(C)C1=C(C)C2=Cc3c(C(C)OCCCCCCCC)c(C)c4[n]3[Ga][n]3c(c(C)c(CCC(=O)NC(CC(=O)O)C(=O)O)c3=CC3=NC(=C4)C(C)=C3CCC(=O)NC(CC(=O)O)C(=O)O)=CC1=N2` (centres unmarked) [(12) C8-Ga-DP-diAsp, 2,4-bis(1-octyloxyethyl)-Ga-deuteroporphynyl diaspartic acid], for which, in data set [4], the “concentration at which photosensitivity is manifested” value is not below 1.0 ng/mL. In data set [2], the tumor/tissue cancer/ kidney came out at 2.12, the tumor/tissue cancer/ liver is on record as 1.47, the tumor/tissue cancer/ lung turned out to be 2.20 and the tumor/tissue cancer/ serum came to 0.29. In data set [3], the “photograph of a cancer mass (Fig. 2)” value is “hemorrhagic necrosis” and the Hemorrhagic necrosis effect entry is on record as “G3”.
`CCCCCCCCCCOC(C)C1=C(C)c2cc3[nH]c(cc4nc(cc5[nH]c(cc1n2)c(C)c5C(C)OCCCCCCCCCC)C(C)=C4CCC(=O)NC(CC(=O)O)C(=O)O)c(CCC(=O)NC(CC(=O)O)C(=O)O)c3C.[Ga]` (centres unmarked) [(16) C10-Ga-DP-diAsp, 2,4-bis(1-decyloxyethyl)-Ga-deuteroporphynyl diaspartic acid]: in data set [1], the “state of the cancer mass after Yag laser irradiation” value is listed as “necrotic”. Moreover, in data set [2], the tumor/tissue cancer/ kidney came to 16.44, the tumor/tissue cancer/ liver turned out to be 11.54, the tumor/tissue cancer/ lung amounted to 23.08 and the tumor/tissue cancer/ serum was 2.78. In data set [3], the “photograph of a cancer mass (Fig. 2)” value was “hemorrhagic necrosis” and the Hemorrhagic necrosis effect entry is recorded as “G2”.
Take `CCCCCCCCCCOC(C)C1=C(C)c2cc3[nH]c(cc4nc(cc5[nH]c(cc1n2)c(C)c5C(C)OCCCCCCCCCC)C(C)=C4CCC(=O)NC(CC(=O)O)C(=O)O)c(CCC(=O)NC(CC(=O)O)C(=O)O)c3C.[Mn]` (centres unmarked) [(37) C10-Mn-DP-diAsp, 2,4-bis(1-decyloxyethyl)-Mn-deuteroporphynyl diaspartic acid]: the “tumor growth compared to the control group (Fig. 6)” value in data set [5] was “notable tumor growth inhibitory effect”. Also, the photosensitivity result in data set [4] is recorded as “no photosensitivity”. Moreover, the Hemorrhagic necrosis effect result in data set [3] was “G3”.
`CCCCCCCCCCCCOC(C)C1=C(C)C2=Cc3c(C(C)OCCCCCCCCCCCC)c(C)c4[n]3[Mn][n]3c(c(C)c(CCC(=O)NC(CC(=O)O)C(=O)O)c3=CC3=NC(=C4)C(C)=C3CCC(=O)NC(CC(=O)O)C(=O)O)=CC1=N2` (centres unmarked) [(48) C12-Mn-DP-diAsp, 2,4-bis(1-dodecyloxyethyl)-Mn-deuteroporphynyl diaspartic acid]: the “pathological observation of the tumor (Fig. 4)” value in data set [6] is “necrotic tumor cells”. In addition, the “tumor growth compared to the control group (Fig. 6)” value in data set [5] is listed as “notable tumor growth inhibitory effect”. The Hemorrhagic necrosis effect entry in data set [3] is recorded as “G4”.
